Values of other authors, collected in PubChem BioAssay AID1259409 (Chemical Carcinogenesis Research Information System (CCRIS), 2018).

Tested on: rodent chemically induced tumor inhibition, incidence and multiplicity
Assay: CCRIS tumor inhibitor studies
Settings: Carcinogen: 2,2'-DIHYDROXY-DI-N-PROPYLNITROSAMINE, 53609-64-6, 13147-25-6, Carcinogen: 2,2'-DIHYDROXY-DI-N-PROPYLNITROSAMINE, 53609-64-6, 13147-25-6, Dose [Inhibitor]: 0, Route [Inhibitor]: ORAL, Species: RAT, Strain/Sex: F344/MALE, Promoter: NONE USED

## COc1cc(/C=C/C(=O)O[C@H]2CC[C@]34C[C@]35CC[C@]3(C)[C@@H]([C@H](C)CCC=C(C)C)CC[C@@]3(C)[C@@H]5CC[C@H]4C2(C)C)ccc1O
N-ETHYL-N-HYDROXYETHYL- NITROSAMINE, 3,2'-DIMETHYL-4-, N-ETHYL-N-HYDROXYETHYL- NITROSAMINE, 3,2'-DIMETHYL-4-, 1% IN DIET BEGINNING 1 WK POST LAST CARCINOGEN DOSE AND CONTINUING FOR 32 WK (STUDY DURATION: 36 WK), Target Tissue: Type of Lesion: LIVER: HEPATOCELLULAR CARCINOMA, Dose [Carcinogen]: 1000 MG/KG IP DHPN 2X, 1500 MG/KG GAV EHEN 2X AND 75 MG/KG SC DMAB 3X GIVEN OVER THE INITIAL 3 WK PERIOD AT 3-4 D INTERV
  tumour outcome (control, treated, inhibition, significance): 6/14 (43%), 3/13 (23%), 47%, not calculated
N-ETHYL-N-HYDROXYETHYL- NITROSAMINE, 3,2'-DIMETHYL-4-, N-ETHYL-N-HYDROXYETHYL- NITROSAMINE, 3,2'-DIMETHYL-4-, 1% IN DIET BEGINNING 1 WK POST LAST CARCINOGEN DOSE AND CONTINUING FOR 32 WK (STUDY DURATION: 36 WK), Target Tissue: Type of Lesion: LUNG: ADENOMA, Dose [Carcinogen]: 1000 MG/KG IP DHPN 2X, 1500 MG/KG GAV EHEN 2X AND 75 MG/KG SC DMAB 3X GIVEN OVER THE INITIAL 3 WK PERIOD AT 3-4 D INTERV
  tumour outcome (control, treated, inhibition, significance): 7/14 (50%), 11/13 (85%), -70%, not calculated
N-ETHYL-N-HYDROXYETHYL- NITROSAMINE, 3,2'-DIMETHYL-4-, N-ETHYL-N-HYDROXYETHYL- NITROSAMINE, 3,2'-DIMETHYL-4-, 1% IN DIET BEGINNING 1 WK POST LAST CARCINOGEN DOSE AND CONTINUING FOR 32 WK (STUDY DURATION: 36 WK), Target Tissue: Type of Lesion: LUNG: CARCINOMA, Dose [Carcinogen]: 1000 MG/KG IP DHPN 2X, 1500 MG/KG GAV EHEN 2X AND 75 MG/KG SC DMAB 3X GIVEN OVER THE INITIAL 3 WK PERIOD AT 3-4 D INTERV
  tumour outcome (control, treated, inhibition, significance): 1/14 (7%), 7/13 (54%), -671%, p<0.05
N-ETHYL-N-HYDROXYETHYL- NITROSAMINE, 3,2'-DIMETHYL-4-, N-ETHYL-N-HYDROXYETHYL- NITROSAMINE, 3,2'-DIMETHYL-4-, 1% IN DIET BEGINNING 1 WK POST LAST CARCINOGEN DOSE AND CONTINUING FOR 32 WK (STUDY DURATION: 36 WK), Target Tissue: Type of Lesion: URINARY BLADDER: PAPILLOMA, Dose [Carcinogen]: 1000 MG/KG IP DHPN 2X, 1500 MG/KG GAV EHEN 2X AND 75 MG/KG SC DMAB 3X GIVEN OVER THE INITIAL 3 WK PERIOD AT 3-4 D INTERV
  outcome: 0/14 (0%), 3/13 (23%), -100%, not calculated
N-ETHYL-N-HYDROXYETHYLNITROSAMINE, 3,2'-DIMETHYL-4-AMINO-, N-ETHYL-N-HYDROXYETHYLNITROSAMINE, 3,2'-DIMETHYL-4-AMINO-, 1% IN DIET FOR 32 WK BEGINNING 1 WK POST CARCINOGEN TREATMENT (STUDY DURATION: 36 WK), Target Tissue: Type of Lesion: KIDNEY: ADENOMA, Dose [Carcinogen]: 1000 MG/KG BW DHPN TWICE , 1500 MG/KG BW EHEN TWICE, 75 MG/KG BW 3 TIMES ADMINISTERED OVER FIRST 3 WK
  tumour outcome (control, treated, inhibition, significance): 6/14 (43%), 9/13 (69%), -60%, not significant
N-ETHYL-N-HYDROXYETHYLNITROSAMINE, 3,2'-DIMETHYL-4-AMINO-, N-ETHYL-N-HYDROXYETHYLNITROSAMINE, 3,2'-DIMETHYL-4-AMINO-, 1% IN DIET FOR 32 WK BEGINNING 1 WK POST CARCINOGEN TREATMENT (STUDY DURATION: 36 WK), Target Tissue: Type of Lesion: KIDNEY: NEPHROBLASTOMA, Dose [Carcinogen]: 1000 MG/KG BW DHPN TWICE, 1500 MG/KG BW EHEN TWICE, 75 MG/KG BW 3 TIMES ADMINISTERED OVER FIRST 3 WK
  tumour outcome (control, treated, inhibition, significance): 2/14 (14%), 0/13 (0%), 100%, not significant
N-ETHYL-N-HYDROXYETHYLNITROSAMINE, 3,2'-DIMETHYL-4-AMINO-, N-ETHYL-N-HYDROXYETHYLNITROSAMINE, 3,2'-DIMETHYL-4-AMINO-, 1% IN DIET FOR 32 WK BEGINNING 1 WK POST CARCINOGEN TREATMENT (STUDY DURATION: 36 WK), Target Tissue: Type of Lesion: KIDNEY: TRANSITIONAL CELL CARCINOMA, Dose [Carcinogen]: 1000 MG/KG BW DHPN TWICE , 1500 MG/ KG BW EHEN TWICE, 75 MG/KG BW 3 TIMES ADMINISTERED OVER FIRST THREE WEEKS
  tumour outcome (control, treated, inhibition, significance): 1/14 (7%), 2/13 (15%), -114%, not significant
N-ETHYL-N-HYDROXYETHYLNITROSAMINE, 3,2'-DIMETHYL-4-AMINO-, N-ETHYL-N-HYDROXYETHYLNITROSAMINE, 3,2'-DIMETHYL-4-AMINO-, 1% IN DIET FOR 32 WK BEGINNING 1 WK POST CARCINOGEN TREATMENT (STUDY DURATION: 36 WK), Target Tissue: Type of Lesion: LARGE INTESTINE: CARCINOMA, Dose [Carcinogen]: 1000 MG/KG BW DHPN TWICE, 1500 MG/KG BW EHEN TWICE, 75 MG/KG BW 3 TIMES ADMINISTERED OVER 3 WK
  tumour outcome (control, treated, inhibition, significance): 3/14 (21%), 6/13 (46%), -119%, not significant
N-ETHYL-N-HYDROXYETHYLNITROSAMINE, 3,2'-DIMETHYL-4-AMINO-, N-ETHYL-N-HYDROXYETHYLNITROSAMINE, 3,2'-DIMETHYL-4-AMINO-, 1% IN DIET FOR 32 WK BEGINNING 1 WK POST CARCINOGEN TREATMENT (STUDY DURATION: 36 WK), Target Tissue: Type of Lesion: LIVER: HEPATOCELLULAR CARCINOMA, Dose [Carcinogen]: 1000 MG/KG BW DHPN TWICE , 1500 MG/KG BW EHEN TWICE 75 MG/KG BW 3 TIMES ADMINISTERED OVER FIRST 3 WK
  tumour outcome (control, treated, inhibition, significance): 6/14 (43%), 3/13 (23%), 47%, not significant
